Experimental findings from PMC12301304 (Frontiers in Pharmacology, 2025) are described below.

In general, AUC(0-inf) refers to the area under the concentration-time curve extrapolated to infinity. A word on the AUC(0-t): it is exposure summed from dosing to a finite time, without extrapolation to infinity. For orientation: CL/F means clearance divided by bioavailability, as obtained after extravascular dosing. For orientation: Cmax means the maximum level reached in the sampled fluid or tissue. The term half-life denotes the time needed for the level to fall by half in the phase considered.

Molecules are shown by their SMILES.

A short description of the first data set: Pharmacokinetics of the seven cocktail probe drugs in blank control rats (Group C). As to conditions: probe drug in rat plasma, cocktail by gavage, Group C (0.3% CMC-Na 14 d); n = 8. The protocol:
The effect of the Zhicaowu–Hezi combination on CYP450 enzymes in rats was evaluated by examining the pharmacokinetics of theophylline (CYP1a2), metoprolol (CYP2d2), bupropion (CYP2b1), omeprazole (CYP2c13), chlorzoxazone (CYP2e1), testosterone (CYP3a1), and diclofenac (CYP2c11).
The collected blood was placed in sodium heparin-treated centrifuge tubes and centrifuged at 4°C for 10 min at 3,000 RPM. […] After 10 min of sedimentation, the supernatant was extracted through a 0.22-μm microporous membrane, 20 μL of which was injected into HPLC. The pharmacokinetic parameters of each probe drug were calculated using the non-atrial compartment model in Drug and Statistics software (DAS, 3.0; Shanghai, China).
`COc1ccc2[nH]c([S+]([O-])Cc3ncc(C)c(OC)c3C)nc2c1` (stereo not drawn) [omeprazole]: the t1/2 z is listed as 4.689 ± 0.467 h.
The same measure, in the same setting: with `Cn1c(=O)c2[nH]cnc2n(C)c1=O` [theophylline] the figure was 5.273 ± 0.526 h.

Still in this data set, the particulars now being: rat, in vivo, po.
For the compound `COc1ccc2[nH]c([S+]([O-])Cc3ncc(C)c(OC)c3C)nc2c1` (stereo not drawn) [omeprazole], the AUC(0-inf) is 3900 ± 394 ng·h/mL, the AUC(0-t) came out at 3840 ± 372 ng·h/mL, the apparent clearance (CL/F) was 43.4 mL/min/kg and the Cmax stood at 995 ± 78 ng/mL.
`O=C(O)Cc1ccccc1Nc1c(Cl)cccc1Cl` [diclofenac]: the AUC(0-inf) turned out to be 5470 ± 358 ng·h/mL, the AUC(0-t) is 5230 ± 465 ng·h/mL, the CL/F was 42.3 mL/min/kg and the Cmax was 1080 ± 115 ng/mL. The half-life was 4.98 ± 0.557 h.
As for `Cn1c(=O)c2[nH]cnc2n(C)c1=O` [theophylline], the AUC(0-inf) was 22500 ± 1440 ng·h/mL, the exposure AUC(0-t) turned out to be 21900 ± 1250 ng·h/mL, the apparent clearance CL/F is 7.75 mL/min/kg and the maximum concentration (Cmax) is 1810 ± 94 ng/mL.
With `C[C@]12CC[C@H]3[C@@H](CCC4=CC(=O)CC[C@@]43C)[C@@H]1CC[C@@H]2O` [testosterone], the AUC(0-inf) came to 1410 ± 69 ng·h/mL, the AUC(0-t) was determined as 1210 ± 81 ng·h/mL, the CL/F is 66.8 mL/min/kg and the Cmax was 295 ± 54 ng/mL. The half-life is 11.1 ± 1.11 h.
As for `COCCc1ccc(OCC(O)CNC(C)C)cc1` (stereo not drawn) [metoprolol], the AUC(0-inf) worked out at 10100 ± 1480 ng·h/mL, the exposure AUC(0-t) was found to be 9600 ± 988 ng·h/mL, the apparent clearance CL/F is 26.3 mL/min/kg and the Cmax amounted to 891 ± 114 ng/mL. In addition, the half-life is 7.95 ± 1.15 h.
Taken in the same sequence, the figures for `CC(NC(C)(C)C)C(=O)c1cccc(Cl)c1` (stereo not drawn) [bupropion] were 16300 ± 1410 ng·h/mL, 15800 ± 1320 ng·h/mL, 7.16 mL/min/kg, 1300 ± 93 ng/mL and 18.7 ± 0.948 h.
